Experimental data reported in paper PMC13210772, “Dual FLT3/MAPK14 Proteolysis-Targeting Chimera (PROTAC) Induces Potent Acute Myeloid Leukemia Cell Death” (Pharmaceuticals, 2026).

What was measured:
Assay in all cases: NanoBRET CELLinib128
Format in all cases: binding
LATS1 = target: T1, LATS1 (Homo sapiens, UniProt O95835); conditions: 100% no effect, 0% complete tracer displacement, read-out: Tracer bound
T1 construct: Full-length kinase ORF (Promega, Madison, WI, USA) cloned in frame with a NanoLuc-vector was transfected into HEK293T cells; host or cells: HEK293T
Experimental: (§1) To get an impression about the binding strength of the PROTAC MA191 and the reference inhibitor MA68 to other kinases besides FLT3-ITD the binding on a kinase panel of further 128 representative protein kinases at 1 μM concentration was tested using the NanoBRET^TM cellular target engagement assay (CELLinib128 assay, CELLinib GmbH, Frankfurt, Germany). […] In none of the 128 kinases MA191 was able to displace the tracer (inhibitor) used by more than 50%, Table S1, Supplementary Information).
(§2) The CELLinib128 assay was performed by CELLinib GmbH, Frankfurt (Germany) as described previously. In brief: Full-length kinase ORF (Promega, Madison, WI, USA) cloned in frame with a NanoLuc-vector was transfected into HEK293T cells in Opti-MEM without phenol red (Life Technologies, Carlsbad, CA, USA) at a density of 2 × 10^5 cells/mL using FuGENE HD (Promega, E2312) and proteins were allowed to express for 20 h. For CDKs, where indicated below, an excess of an activator without an NLuc-fusion was cotransfected. […] The system was allowed to equilibrate at 37 °C for 2 h and 5% CO2 prior to BRET measurements. For PKCs, a chemical activator PMA was added in a final concentration of 1 µM was added together with test compounds and tracers (Promega, V1171). To measure BRET, NanoBRET^TM NanoGlo substrate + extracellular NanoLuc inhibitor (Promega, N2160) were added as per the manufacturer’s protocol, and filtered luminescence was measured (450 nm BP filter (donor) and 610 nm LP filter (acceptor)). For the 1-shot test compounds, data were normalized to the tracer control and the background control or control compound plateau and an average and SD were calculated. […] For the control compounds competitive displacement data were normalized to the tracer Ctrl and the background Ctrl and then plotted and fitted using GraphPad Prism 10 software using a normalized 3-parameter curve fit with the following equation: Y = 100/(1 + 10^X−LogIC50).

TYK2 = target: T2, TYK2 (Homo sapiens, UniProt P29597); conditions: 1 µM; 100% no effect, 0% complete tracer displacement
T2 construct: Full-length kinase ORF (Promega, Madison, WI, USA) cloned in frame with a NanoLuc-vector; host or cells: HEK293T
T2 sequence (P29597 whole entry): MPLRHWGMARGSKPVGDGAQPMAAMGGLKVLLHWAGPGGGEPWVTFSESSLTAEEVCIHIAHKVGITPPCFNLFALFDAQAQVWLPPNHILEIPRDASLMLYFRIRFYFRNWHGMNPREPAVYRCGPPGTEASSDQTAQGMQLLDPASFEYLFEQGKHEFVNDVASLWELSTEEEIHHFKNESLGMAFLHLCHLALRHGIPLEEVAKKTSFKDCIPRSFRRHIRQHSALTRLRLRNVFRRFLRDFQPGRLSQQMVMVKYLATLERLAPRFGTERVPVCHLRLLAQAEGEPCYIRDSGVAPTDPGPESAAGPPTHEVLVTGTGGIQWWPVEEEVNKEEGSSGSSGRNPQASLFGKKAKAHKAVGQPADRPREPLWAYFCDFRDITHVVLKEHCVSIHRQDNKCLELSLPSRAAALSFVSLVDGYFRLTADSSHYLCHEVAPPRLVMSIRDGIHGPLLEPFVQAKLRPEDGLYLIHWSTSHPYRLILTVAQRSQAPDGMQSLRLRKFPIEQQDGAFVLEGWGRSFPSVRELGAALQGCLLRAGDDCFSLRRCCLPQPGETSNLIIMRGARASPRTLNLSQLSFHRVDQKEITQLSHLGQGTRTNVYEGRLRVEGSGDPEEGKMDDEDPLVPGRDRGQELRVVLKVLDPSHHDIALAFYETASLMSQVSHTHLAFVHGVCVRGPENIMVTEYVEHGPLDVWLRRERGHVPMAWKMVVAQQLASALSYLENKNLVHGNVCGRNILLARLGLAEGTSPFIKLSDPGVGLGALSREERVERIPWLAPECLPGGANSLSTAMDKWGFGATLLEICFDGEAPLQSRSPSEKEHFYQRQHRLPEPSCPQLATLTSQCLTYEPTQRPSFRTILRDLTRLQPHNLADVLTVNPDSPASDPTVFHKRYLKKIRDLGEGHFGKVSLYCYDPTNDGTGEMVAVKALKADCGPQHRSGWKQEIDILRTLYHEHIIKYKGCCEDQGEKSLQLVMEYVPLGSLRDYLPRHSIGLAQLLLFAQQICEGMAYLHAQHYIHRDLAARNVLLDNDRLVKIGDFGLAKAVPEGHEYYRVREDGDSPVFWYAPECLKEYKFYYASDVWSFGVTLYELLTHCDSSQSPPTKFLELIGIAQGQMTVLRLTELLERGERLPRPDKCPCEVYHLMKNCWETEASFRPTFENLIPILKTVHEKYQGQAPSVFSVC
Experimental: as §1, §2

MAP4K5 = target: T3, MAP4K5 (Homo sapiens, UniProt Q9Y4K4); conditions: 100% no effect, 0% complete tracer displacement, read-out: Tracer bound
T3 construct: Full-length kinase ORF (Promega, Madison, WI, USA) cloned in frame with a NanoLuc-vector was transfected into HEK293T cells; host or cells: HEK293T
Experimental: as §1, §2

PRKCE-PMA = target: T4, PRKCE-PMA (Homo sapiens, UniProt Q02156); conditions: 100% no effect, 0% complete tracer displacement, read-out: Tracer bound
T4 construct: Full-length kinase ORF (Promega, Madison, WI, USA) cloned in frame with a NanoLuc-vector was transfected into HEK293T cells; host or cells: HEK293T
T4 sequence (Q02156 whole entry): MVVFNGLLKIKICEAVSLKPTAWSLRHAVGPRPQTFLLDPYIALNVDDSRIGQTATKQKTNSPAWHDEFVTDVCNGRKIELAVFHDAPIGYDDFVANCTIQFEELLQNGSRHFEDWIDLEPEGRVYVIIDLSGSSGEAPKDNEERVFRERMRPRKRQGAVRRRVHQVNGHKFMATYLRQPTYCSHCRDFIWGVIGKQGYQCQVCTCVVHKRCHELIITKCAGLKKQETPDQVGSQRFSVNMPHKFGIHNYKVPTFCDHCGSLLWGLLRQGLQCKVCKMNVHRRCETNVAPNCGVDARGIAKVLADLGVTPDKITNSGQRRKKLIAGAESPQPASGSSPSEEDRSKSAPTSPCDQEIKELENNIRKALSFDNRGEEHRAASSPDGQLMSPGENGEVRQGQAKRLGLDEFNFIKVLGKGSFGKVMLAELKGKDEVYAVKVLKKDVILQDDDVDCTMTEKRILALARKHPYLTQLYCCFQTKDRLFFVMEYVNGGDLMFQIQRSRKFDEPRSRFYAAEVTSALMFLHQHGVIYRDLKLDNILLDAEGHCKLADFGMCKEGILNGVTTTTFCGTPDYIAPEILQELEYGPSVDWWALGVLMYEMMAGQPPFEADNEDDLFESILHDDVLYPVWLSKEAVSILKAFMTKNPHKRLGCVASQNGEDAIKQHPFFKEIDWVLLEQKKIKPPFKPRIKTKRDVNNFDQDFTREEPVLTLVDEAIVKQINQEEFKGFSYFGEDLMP
Experimental: as §1, §2

TEK = target: T5, TEK (Homo sapiens, UniProt Q02763); conditions: 100% no effect, 0% complete tracer displacement, read-out: Tracer bound
T5 construct: Full-length kinase ORF (Promega, Madison, WI, USA) cloned in frame with a NanoLuc-vector was transfected into HEK293T cells; host or cells: HEK293T
Experimental: as §1, §2

EPHA6 = target: T6, EPHA6 (Homo sapiens, UniProt Q9UF33); conditions: 100% no effect, 0% complete tracer displacement, read-out: Tracer bound
T6 construct: Full-length kinase ORF (Promega, Madison, WI, USA) cloned in frame with a NanoLuc-vector was transfected into HEK293T cells; host or cells: HEK293T
Experimental: as §1, §2

SIK1 = target: T7, SIK1 (Homo sapiens, UniProt P57059); conditions: 1 µM; 100% no effect, 0% complete tracer displacement
T7 construct: Full-length kinase ORF (Promega, Madison, WI, USA) cloned in frame with a NanoLuc-vector was transfected into HEK293T cells; host or cells: HEK293T
Experimental: as §1, §2

PRKACB = target: T8, PRKACB (Homo sapiens, UniProt P22694); conditions: 100% no effect, 0% complete tracer displacement, read-out: Tracer bound
T8 construct: Full-length kinase ORF (Promega, Madison, WI, USA) cloned in frame with a NanoLuc-vector was transfected into HEK293T cells; host or cells: HEK293T
Experimental: as §1, §2

PAK6 = target: T9, PAK6 (Homo sapiens, UniProt Q9NQU5); conditions: 100% no effect, 0% complete tracer displacement, read-out: Tracer bound
T9 construct: Full-length kinase ORF (Promega, Madison, WI, USA) cloned in frame with a NanoLuc-vector was transfected into HEK293T cells; host or cells: HEK293T
Experimental: as §1, §2

LIMK2 = target: T10, LIMK2 (Homo sapiens, UniProt P53671); conditions: 100% no effect, 0% complete tracer displacement, read-out: Tracer bound
T10 construct: Full-length kinase ORF (Promega, Madison, WI, USA) cloned in frame with a NanoLuc-vector was transfected into HEK293T cells; host or cells: HEK293T
Experimental: as §1, §2

CDK3-CCNE1 = target: T11, CDK3-CCNE1 (Homo sapiens, UniProt Q00526); conditions: 1 µM; 100% no effect, 0% complete tracer displacement
T11 construct: Full-length kinase ORF (Promega, Madison, WI, USA) cloned in frame with a NanoLuc-vector was transfected into HEK293T cells; host or cells: HEK293T
Experimental: as §1, §2

STK36 = target: T12, STK36 (Homo sapiens, UniProt Q9NRP7); conditions: 100% no effect, 0% complete tracer displacement, read-out: Tracer bound
T12 construct: Full-length kinase ORF (Promega, Madison, WI, USA) cloned in frame with a NanoLuc-vector was transfected into HEK293T cells; host or cells: HEK293T
Experimental: as §1, §2

CDK18-CCNY = target: T13, CDK18-CCNY (Homo sapiens, UniProt Q07002); conditions: 100% no effect, 0% complete tracer displacement, read-out: Tracer bound
T13 construct: Full-length kinase ORF (Promega, Madison, WI, USA) cloned in frame with a NanoLuc-vector was transfected into HEK293T cells; host or cells: HEK293T
Experimental: as §1, §2

STK35 = target: T14, STK35 (Homo sapiens, UniProt Q8TDR2); conditions: 100% no effect, 0% complete tracer displacement, read-out: Tracer bound
T14 construct: Full-length kinase ORF (Promega, Madison, WI, USA) cloned in frame with a NanoLuc-vector was transfected into HEK293T cells; host or cells: HEK293T
T14 sequence (Q8TDR2 whole entry): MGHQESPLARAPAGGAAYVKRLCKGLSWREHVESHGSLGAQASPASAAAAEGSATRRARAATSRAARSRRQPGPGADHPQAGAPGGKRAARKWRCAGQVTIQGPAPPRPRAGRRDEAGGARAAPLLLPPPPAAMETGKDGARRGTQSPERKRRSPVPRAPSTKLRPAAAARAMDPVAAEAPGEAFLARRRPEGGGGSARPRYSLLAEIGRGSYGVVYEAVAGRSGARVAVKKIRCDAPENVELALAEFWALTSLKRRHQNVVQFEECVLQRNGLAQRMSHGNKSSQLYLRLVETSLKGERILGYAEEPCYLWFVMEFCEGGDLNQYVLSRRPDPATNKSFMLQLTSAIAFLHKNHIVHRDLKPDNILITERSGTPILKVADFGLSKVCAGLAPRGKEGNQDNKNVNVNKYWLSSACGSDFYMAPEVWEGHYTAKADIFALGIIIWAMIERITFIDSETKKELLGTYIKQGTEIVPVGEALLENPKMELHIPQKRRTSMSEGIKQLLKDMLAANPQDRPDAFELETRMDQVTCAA
Experimental: as §1, §2

MAP4K2 = target: T15, MAP4K2 (Homo sapiens, UniProt Q12851); conditions: 100% no effect, 0% complete tracer displacement, read-out: Tracer bound
T15 construct: Full-length kinase ORF (Promega, Madison, WI, USA) cloned in frame with a NanoLuc-vector was transfected into HEK293T cells; host or cells: HEK293T
Experimental: as §1, §2

STK38L = target: T16, STK38L (Homo sapiens, UniProt Q9Y2H1); conditions: 100% no effect, 0% complete tracer displacement, read-out: Tracer bound
T16 construct: Full-length kinase ORF (Promega, Madison, WI, USA) cloned in frame with a NanoLuc-vector was transfected into HEK293T cells; host or cells: HEK293T
Experimental: as §1, §2

RPS6KA2 = target: T17, RPS6KA2 (Homo sapiens, UniProt Q15349); conditions: 100% no effect, 0% complete tracer displacement, read-out: Tracer bound
T17 construct: Full-length kinase ORF (Promega, Madison, WI, USA) cloned in frame with a NanoLuc-vector was transfected into HEK293T cells; host or cells: HEK293T
Experimental: as §1, §2

IRAK4 = target: T18, IRAK4 (Homo sapiens, UniProt Q9NWZ3); conditions: 1 µM; 100% no effect, 0% complete tracer displacement
T18 construct: Full-length kinase ORF (Promega, Madison, WI, USA) cloned in frame with a NanoLuc-vector was transfected into HEK293T cells; host or cells: HEK293T
Experimental: as §1, §2

RPS6KA6 = target: T19, RPS6KA6 (Homo sapiens, UniProt Q9UK32); conditions: 1 µM; 100% no effect, 0% complete tracer displacement
T19 construct: Full-length kinase ORF (Promega, Madison, WI, USA) cloned in frame with a NanoLuc-vector was transfected into HEK293T cells; host or cells: HEK293T
Experimental: as §1, §2

MAP3K11 = target: T20, MAP3K11 (Homo sapiens, UniProt Q16584); conditions: 1 µM; 100% no effect, 0% complete tracer displacement
T20 construct: Full-length kinase ORF (Promega, Madison, WI, USA) cloned in frame with a NanoLuc-vector was transfected into HEK293T cells; host or cells: HEK293T
Experimental: as §1, §2

CDK4-CCND3 = target: T21, CDK4-CCND3 (Homo sapiens, UniProt P11802); conditions: 100% no effect, 0% complete tracer displacement, read-out: Tracer bound
T21 construct: Full-length kinase ORF (Promega, Madison, WI, USA) cloned in frame with a NanoLuc-vector was transfected into HEK293T cells; host or cells: HEK293T
T21 sequence (P11802 whole entry): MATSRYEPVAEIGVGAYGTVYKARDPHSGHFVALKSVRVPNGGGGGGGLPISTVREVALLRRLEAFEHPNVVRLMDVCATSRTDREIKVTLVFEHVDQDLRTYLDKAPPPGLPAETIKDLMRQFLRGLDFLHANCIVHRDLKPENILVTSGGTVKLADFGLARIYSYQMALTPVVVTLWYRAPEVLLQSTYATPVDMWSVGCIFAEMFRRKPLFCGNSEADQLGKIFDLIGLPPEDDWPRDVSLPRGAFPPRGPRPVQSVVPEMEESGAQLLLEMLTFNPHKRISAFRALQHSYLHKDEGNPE
T21 sequence (P30281 whole entry partner): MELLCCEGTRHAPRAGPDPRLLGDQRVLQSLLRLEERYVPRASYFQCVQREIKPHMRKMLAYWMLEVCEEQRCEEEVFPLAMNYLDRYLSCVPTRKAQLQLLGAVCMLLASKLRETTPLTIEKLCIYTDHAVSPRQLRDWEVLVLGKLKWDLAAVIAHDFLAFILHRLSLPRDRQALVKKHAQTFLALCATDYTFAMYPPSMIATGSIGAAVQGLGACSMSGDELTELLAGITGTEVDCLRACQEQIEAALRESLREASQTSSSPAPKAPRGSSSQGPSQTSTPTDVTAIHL
Experimental: as §1, §2

MAP4K3 = target: T22, MAP4K3 (Homo sapiens, UniProt Q8IVH8); conditions: 1 µM; 100% no effect, 0% complete tracer displacement
T22 construct: Full-length kinase ORF (Promega, Madison, WI, USA) cloned in frame with a NanoLuc-vector was transfected into HEK293T cells; host or cells: HEK293T
T22 sequence (Q8IVH8 whole entry): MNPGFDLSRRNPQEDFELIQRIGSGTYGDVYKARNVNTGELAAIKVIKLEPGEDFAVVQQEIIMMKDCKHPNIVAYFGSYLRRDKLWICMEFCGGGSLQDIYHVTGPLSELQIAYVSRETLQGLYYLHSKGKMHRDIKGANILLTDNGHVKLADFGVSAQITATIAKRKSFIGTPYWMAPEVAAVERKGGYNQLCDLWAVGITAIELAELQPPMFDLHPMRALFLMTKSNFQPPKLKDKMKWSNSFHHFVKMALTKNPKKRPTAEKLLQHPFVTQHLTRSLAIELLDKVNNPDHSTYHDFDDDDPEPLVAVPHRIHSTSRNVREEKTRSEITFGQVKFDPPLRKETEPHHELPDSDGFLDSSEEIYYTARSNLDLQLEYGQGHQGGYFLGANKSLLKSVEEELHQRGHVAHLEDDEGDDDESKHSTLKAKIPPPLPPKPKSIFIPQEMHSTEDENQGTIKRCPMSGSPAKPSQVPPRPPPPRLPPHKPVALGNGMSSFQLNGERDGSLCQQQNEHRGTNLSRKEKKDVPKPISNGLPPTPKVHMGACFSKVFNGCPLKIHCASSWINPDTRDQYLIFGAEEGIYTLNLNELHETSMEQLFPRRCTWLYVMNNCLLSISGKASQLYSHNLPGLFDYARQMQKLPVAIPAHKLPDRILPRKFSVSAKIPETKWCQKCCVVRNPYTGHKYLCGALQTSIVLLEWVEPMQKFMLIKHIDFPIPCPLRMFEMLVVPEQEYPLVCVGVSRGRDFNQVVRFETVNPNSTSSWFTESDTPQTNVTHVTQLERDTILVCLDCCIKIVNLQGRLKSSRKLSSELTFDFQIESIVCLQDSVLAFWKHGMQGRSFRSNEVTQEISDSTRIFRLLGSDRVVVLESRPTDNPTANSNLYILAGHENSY
Experimental: as §1, §2

IRAK3 = target: T23, IRAK3 (Homo sapiens, UniProt Q9Y616); conditions: 100% no effect, 0% complete tracer displacement, read-out: Tracer bound
T23 construct: Full-length kinase ORF (Promega, Madison, WI, USA) cloned in frame with a NanoLuc-vector was transfected into HEK293T cells; host or cells: HEK293T
Experimental: as §1, §2

RET = target: T24, RET (Homo sapiens, UniProt P07949); conditions: 100% no effect, 0% complete tracer displacement, read-out: Tracer bound
T24 construct: Full-length kinase ORF (Promega, Madison, WI, USA) cloned in frame with a NanoLuc-vector was transfected into HEK293T cells; host or cells: HEK293T
T24 sequence (P07949 29-1114): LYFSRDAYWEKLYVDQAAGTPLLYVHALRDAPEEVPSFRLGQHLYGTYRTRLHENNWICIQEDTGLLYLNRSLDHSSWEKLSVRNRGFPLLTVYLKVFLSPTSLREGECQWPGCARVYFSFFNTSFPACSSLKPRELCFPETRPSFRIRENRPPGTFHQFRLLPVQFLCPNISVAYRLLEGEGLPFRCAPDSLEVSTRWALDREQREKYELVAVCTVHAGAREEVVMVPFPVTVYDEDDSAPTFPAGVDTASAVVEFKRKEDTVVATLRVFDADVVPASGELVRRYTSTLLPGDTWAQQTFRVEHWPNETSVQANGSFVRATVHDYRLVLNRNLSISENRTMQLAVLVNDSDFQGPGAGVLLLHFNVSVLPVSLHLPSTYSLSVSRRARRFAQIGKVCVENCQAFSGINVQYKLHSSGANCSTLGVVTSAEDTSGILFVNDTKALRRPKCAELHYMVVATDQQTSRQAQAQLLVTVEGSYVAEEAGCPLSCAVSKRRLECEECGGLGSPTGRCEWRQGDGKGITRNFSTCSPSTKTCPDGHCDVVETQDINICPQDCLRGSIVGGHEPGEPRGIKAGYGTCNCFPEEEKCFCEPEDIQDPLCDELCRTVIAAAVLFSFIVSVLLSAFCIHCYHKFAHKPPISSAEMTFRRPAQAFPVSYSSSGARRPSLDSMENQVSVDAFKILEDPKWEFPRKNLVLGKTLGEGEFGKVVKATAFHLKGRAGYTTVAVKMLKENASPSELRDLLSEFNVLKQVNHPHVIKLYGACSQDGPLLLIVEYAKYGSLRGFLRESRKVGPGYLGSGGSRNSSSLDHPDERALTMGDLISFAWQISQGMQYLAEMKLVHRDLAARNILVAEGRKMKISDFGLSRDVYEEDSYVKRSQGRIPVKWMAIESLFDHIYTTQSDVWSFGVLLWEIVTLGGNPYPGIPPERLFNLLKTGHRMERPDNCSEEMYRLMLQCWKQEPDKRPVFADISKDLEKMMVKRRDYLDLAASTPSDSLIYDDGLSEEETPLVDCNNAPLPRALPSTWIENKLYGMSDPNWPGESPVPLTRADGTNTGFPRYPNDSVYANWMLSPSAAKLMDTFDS
Experimental: as §1, §2

TBK1 = target: T25, TBK1 (Homo sapiens, UniProt Q9UHD2); conditions: 100% no effect, 0% complete tracer displacement, read-out: Tracer bound
T25 construct: Full-length kinase ORF (Promega, Madison, WI, USA) cloned in frame with a NanoLuc-vector was transfected into HEK293T cells; host or cells: HEK293T
Experimental: as §1, §2

AURKA = target: T26, AURKA (Homo sapiens, UniProt O14965); conditions: 100% no effect, 0% complete tracer displacement, read-out: Tracer bound
T26 construct: Full-length kinase ORF (Promega, Madison, WI, USA) cloned in frame with a NanoLuc-vector was transfected into HEK293T cells; host or cells: HEK293T
Experimental: as §1, §2

PTK2 = target: T27, PTK2 (Homo sapiens, UniProt Q05397); conditions: 100% no effect, 0% complete tracer displacement, read-out: Tracer bound
T27 construct: Full-length kinase ORF (Promega, Madison, WI, USA) cloned in frame with a NanoLuc-vector was transfected into HEK293T cells; host or cells: HEK293T
Experimental: as §1, §2

FGFR4 = target: T28, FGFR4 (Homo sapiens, UniProt P22455); conditions: 100% no effect, 0% complete tracer displacement, read-out: Tracer bound
T28 construct: Full-length kinase ORF (Promega, Madison, WI, USA) cloned in frame with a NanoLuc-vector was transfected into HEK293T cells; host or cells: HEK293T
Experimental: as §1, §2

CHEK2 = target: T29, CHEK2 (Homo sapiens, UniProt O96017); conditions: 100% no effect, 0% complete tracer displacement, read-out: Tracer bound
T29 construct: Full-length kinase ORF (Promega, Madison, WI, USA) cloned in frame with a NanoLuc-vector was transfected into HEK293T cells; host or cells: HEK293T
Experimental: as §1, §2

ERN1 = target: T30, ERN1 (Homo sapiens, UniProt O75460); conditions: 100% no effect, 0% complete tracer displacement, read-out: Tracer bound
T30 construct: Full-length kinase ORF (Promega, Madison, WI, USA) cloned in frame with a NanoLuc-vector was transfected into HEK293T cells; host or cells: HEK293T
Experimental: as §1, §2

With `CNC(=O)c1cc(Oc2ccc(NC(=O)Nc3cc(C(C)(C)C)on3)cc2)ccn1` [MA68, reference compound] the remaining activity at 1 µM (LATS1) was 106%, the Tracer bound (TYK2) was 103.2% and the remaining activity at 1 µM (MAP4K5) was 96.3%. For the same compound, the remaining activity at 1 µM (PRKCE-PMA) was 76.2%, the remaining activity at 1 µM (TEK) was 12.6% and the remaining activity at 1 µM (EPHA6) was 23.6%. For the same compound, the Tracer bound (SIK1) was 110.5%, the remaining activity at 1 µM (PRKACB) was 99.6% and the remaining activity at 1 µM (PAK6) was 116%. The remaining activity at 1 µM (LIMK2) was 88.5%, the Tracer bound (CDK3-CCNE1) was 81.0% and the remaining activity at 1 µM (STK36) was 108%. For the same compound, the remaining activity at 1 µM (CDK18-CCNY) was 28.6%, the remaining activity at 1 µM (STK35) was 59.6% and the remaining activity at 1 µM (MAP4K2) was 107%. It also gave a remaining activity at 1 µM (STK38L) of 90%, a remaining activity at 1 µM (RPS6KA2) of 116% and a Tracer bound (IRAK4) of 94.3%. It also gave a Tracer bound (RPS6KA6) of 113.5%, a Tracer bound (MAP3K11) of 109.2% and a remaining activity at 1 µM (CDK4-CCND3) of 29.7%. The Tracer bound (MAP4K3) was 102.6%, the remaining activity at 1 µM (IRAK3) was 120% and the remaining activity at 1 µM (RET) was 3.8%. It also gave a remaining activity at 1 µM (TBK1) of 107%, a remaining activity at 1 µM (AURKA) of 120% and a remaining activity at 1 µM (PTK2) of 118%. The remaining activity at 1 µM (FGFR4) was 86.5%, the remaining activity at 1 µM (CHEK2) was 119% and the remaining activity at 1 µM (ERN1) was 117%.
